One assay relates to wild-type TmrAB. Put plainly: Nucleotide occlusion, wild-type TmrAB. In kind it is biochemical, Thermus thermophilus. The conditions noted are these: TmrAB 2 µM; CP^F 4 µM or orthovanadate 1 mM; ATP 1 mM traced with [α32P]-ATP; 5 min 45°C; normalized to vanadate-trapped state. As to the method: Figure 5. […] (A, B) CP6^F (A) or CP13^F (B, 50 nM each) were incubated with increasing concentrations of detergent-solubilized inward-facing TmrAB (in the absence of Mg-ATP) or outward-facing TmrA^EQB, which was trapped with Mg-ATP (1 mM) for 5 min at 45°C as described ([Hofmann et al., 2019]; [Stefan et al., 2020]). Immediately after, the fluorescence anisotropy was assayed at λex/em = 485/520 nm. The difference in fluorescence polarization was normalized to free and fully bound CP^F. Data were fitted by a one-site binding model. […] TmrAB (2 µM each) were mixed with CP^Fs (4 µM), ATP (1 mM, traced with [α^32P]-ATP), and MgCl2 (5 mM) for 5 min at 4°C or 45°C. Cold ATP (10 mM) was added, and freely exchangeable nucleotides were removed by rapid gel filtration. Occluded nucleotides were analyzed by thin layer chromatography and autoradiography. Representative radiograms for independent triplicates are shown. (D) Stably occluded nucleotides, [α^32P]-ATP and [α^32P]-ADP, were quantified by autoradiography. Data were normalized to the vanadate-trapped state. In (A, B, D), mean values ± SD (n = 3) are shown. Figure 5—source data 1. Source Data for Figure 5. Figure 5—figure supplement 1. […] (A) CP^Fs (50 nM each) were incubated with increasing concentrations of detergent-solubilized IF TmrAB in the inward-facing (IF) conformation (absence of Mg-ATP) or TmrA^EQB populated in the outward-facing (OF) conformation, which was trapped in the OF conformation by Mg-ATP (1 mM) after 5 min incubation at 45°C. The difference in fluorescence polarization was normalized to unbound (0%) and 100% bound CP^F. Data were fitted by a one-site binding model. Fluorescence anisotropy was recorded at λex/em = 485/520 nm. […] TmrA^EQB (2 µM) were incubated in the absence and presence of CP^Fs (4 µM each), ATP (1 mM, traced with [α^32P]-ATP), and MgCl2 (5 mM) for 5 min at 4°C or 45°C. Cold ATP (10 mM) was added, and free nucleotides were removed by rapid gel filtration. Occluded nucleotides were analyzed by thin layer chromatography and autoradiography. Representative radiograms for independent triplicates are shown. […] Figure 5—figure supplement 1—source data 1.
We also examined the impact of CP^Fs on the IF-to-OF transition of wild-type TmrAB induced by ATP binding through nucleotide occlusion (stable trapping) as the readout. We induced the IF-to-OF switch with radiotraced [α^32P]-ATP for 5 min at 45°C in the presence and absence of CPs and removed unbound nucleotides by rapid gel filtration. Subsequently, the occluded nucleotides were identified and quantified by thin layer chromatography and autoradiography (Figure 5C, D).
Detergent-solubilized TmrAB (2 µM) were incubated with ATP (1 mM) traced with [α^32P]-ATP (Hartmann Analytic), MgCl2 (5 mM), CP^Fs (4 µM), or orthovanadate (1 mM) for 5 min at 45°C. Cold ATP (10 mM) was added, and unbound nucleotides were removed by rapid gel filtration (Bio-Spin columns P-30, Bio-Rad). ATP (10 mM) was added, and samples were spotted onto polyethyleneimine cellulose plates (Merck Millipore). Thin-layer chromatography was performed using 0.75 M KH2PO4 pH 3.4.

Assay [1] relates to TmrAB. Description: Competition of C4F peptide binding by CP^Bs (fluorescence anisotropy). Further details: species or system Thermus thermophilus. The text has this:
(§1) To elucidate the mechanistic basis for the inhibition of ATP hydrolysis and substrate transport, we investigated the effects of CPs on substrate binding. In the first approach, fluorescent CP^Fs were used as reporters in fluorescence polarization. […] In addition, we examined the impact of CP^Bs on ATP binding to TmrAB by scintillation proximity assays (SPA) (Figure 4C). […] Taken together, CPs are high-affinity allosteric inhibitors of TmrAB that leave ATP binding and substrate interaction largely unaffected, while impairing ATP hydrolysis and substrate translocation across the membrane.
(§2) Figure 4. […] (A) CP^Fs binding TmrAB is not affected by substrate peptide binding. […] For competition, C4^ATTO655 peptide (2 µM) or R9LQK peptide (200 µM) were added. (B) Binding of C4F peptide is not affected by CP^Bs. C4F peptides (50 nM) were mixed with TmrAB (4 µM), and fluorescence anisotropy was monitored as described in (A). For competition, C4^ATTO655 (10 µM) or CP^Bs (6 µM) were added. […] TmrAB (0.2 µM) were immobilized on SPA beads and incubated with ATP (3 μM, traced with ^3H-ATP) in the presence and absence of CP^Bs (1 µM each) for 30 min on ice. ATP binding was monitored by SPA. Background values were determined after releasing TmrAB complexes from the beads by adding imidazole (200 mM). The background signal in the absence of CP^Bs was set to 0 cpm. […] As this is an equilibrium experiment, this can be rationalized by the fact that CP13 stabilizes the ATP-bound OF conformer. Figure 4—source data 1. Source data for Figure 4.
(§3) To determine equilibrium binding constants, CP^Fs (50 nM) were incubated with increasing concentrations of TmrAB-containing or empty liposomes. To probe the conformational selectivity, CP^Fs (50 nM) were mixed with detergent-solubilized IF TmrAB or OF TmrA^EQB. Before, OF TmrA^EQB was nucleotide-trapped by incubation with ATP (1 mM) and MgCl2 (3 mM) in the absence of CP^Fs for 5 min at 45°C. […] For peptide competition studies, RRYC^fluoresceinKSTEL (C4F, 50 nM) were incubated with detergent-solubilized TmrAB (4 µM), CP^Bs (6 µM), or C4^ATTO655 (10 µM). […] Fluorescence anisotropy was analyzed at λex/em of 485/520 nm using a microplate reader (CLARIOstar, BMG LABTECH). Fluorescence anisotropy was calculated using:(1) r=I||−I⊥/I||+2⋅I⊥ with I||: parallel intensity and I⊥: perpendicular intensity. Binding of CP^Fs were fitted by a one-site binding model (Langmuir 1:1) using:(2) Y=Bmax∙[L]/KD+[L] with Y: binding, Bmax: maximal binding, KD: equilibrium dissociation constant, and [L]: ligand concentration. Data represent mean ± SD from three experiments.
In general terms: Fluorescence polarisation rises when a labelled molecule tumbles more slowly, as on binding a larger partner.

Assay [2] concerns TmrAB. Put plainly: Competition of CP^F binding by substrate peptides (fluorescence anisotropy). Details: species or system Thermus thermophilus. The settings on record: C4^ATTO655 2 µM or R9LQK 200 µM, above their KD values.
Text: as §1, §2, §3

The target in assay [3] is T1, TmrAB reconstituted in liposomes (Thermus thermophilus, UniProt Q72J04+Q72J05).
T1 sequence (Q72J05 1-600): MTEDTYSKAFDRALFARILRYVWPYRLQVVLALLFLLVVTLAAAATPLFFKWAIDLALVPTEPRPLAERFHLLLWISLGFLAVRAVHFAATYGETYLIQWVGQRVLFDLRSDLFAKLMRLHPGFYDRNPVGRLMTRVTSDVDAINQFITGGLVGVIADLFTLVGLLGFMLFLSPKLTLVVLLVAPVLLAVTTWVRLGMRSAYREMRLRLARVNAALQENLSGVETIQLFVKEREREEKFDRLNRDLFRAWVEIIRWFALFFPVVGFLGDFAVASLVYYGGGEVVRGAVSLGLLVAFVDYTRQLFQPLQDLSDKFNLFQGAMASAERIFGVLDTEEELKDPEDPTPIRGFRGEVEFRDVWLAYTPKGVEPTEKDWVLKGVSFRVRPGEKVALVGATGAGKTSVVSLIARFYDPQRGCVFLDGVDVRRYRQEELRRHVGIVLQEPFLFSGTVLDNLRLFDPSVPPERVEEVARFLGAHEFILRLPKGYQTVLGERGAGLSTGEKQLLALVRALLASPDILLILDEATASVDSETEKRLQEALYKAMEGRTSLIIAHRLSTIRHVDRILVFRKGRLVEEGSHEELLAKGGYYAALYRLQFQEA
T1 sequence (Q72J04 1-578): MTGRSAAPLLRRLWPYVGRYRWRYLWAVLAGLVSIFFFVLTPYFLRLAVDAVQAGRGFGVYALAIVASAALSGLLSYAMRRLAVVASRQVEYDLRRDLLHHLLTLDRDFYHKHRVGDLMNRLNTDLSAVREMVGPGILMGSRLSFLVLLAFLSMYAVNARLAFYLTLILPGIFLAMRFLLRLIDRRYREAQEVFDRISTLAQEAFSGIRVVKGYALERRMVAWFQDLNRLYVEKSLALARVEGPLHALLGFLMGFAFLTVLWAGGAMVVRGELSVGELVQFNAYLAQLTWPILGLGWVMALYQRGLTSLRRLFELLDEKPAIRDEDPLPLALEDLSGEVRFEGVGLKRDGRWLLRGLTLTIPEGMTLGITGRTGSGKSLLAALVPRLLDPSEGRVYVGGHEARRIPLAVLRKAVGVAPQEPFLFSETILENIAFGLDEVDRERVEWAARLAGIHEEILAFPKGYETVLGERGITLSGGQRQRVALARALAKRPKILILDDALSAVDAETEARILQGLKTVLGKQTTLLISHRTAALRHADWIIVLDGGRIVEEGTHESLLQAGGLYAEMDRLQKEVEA
Put plainly: Filter-based transport assay, CP^Fs tested as substrates. In kind it is biochemical. The conditions noted are these: TmrAB 0.4 µM in liposomes, C4F 3 µM or CP^F 1 µM, 5 min 45°C. An excerpt:
In order to investigate the functional impact of CPs, we examined the effect of the CPs on ATP hydrolysis and substrate transport of TmrAB (Figure 3A). We reconstituted TmrAB in liposomes and first assayed the ATPase activity. […] We next set out to investigate peptide transport by TmrAB using a filter-based transport assay. To investigate whether CPs are recognized as substrates by TmrAB, we added fluorescein-labeled CP^Fs and examined ATP-dependent translocation. In contrast to the linear substrate peptide C4F, none of the CP^Fs were transported by TmrAB (Figure 3C). Next, we examined ATP-dependent transport of C4F peptides in the presence and absence of the different CPs.
Figure 3. CP^Fs are potent inhibitors of ATP turnover and substrate transport. (A) Experimental scheme of ATP hydrolysis and peptide transport by TmrAB. (B) CP^Fs inhibit ATP hydrolysis. TmrAB in liposomes (100 nM) was incubated with ATP (2 mM, traced with [γ^32P]-ATP), and MgCl2 (5 mM) in the presence and absence of CP^Fs (1 µM) for 10 min at 45°C. Autohydrolysis was determined in the absence of TmrAB, and background turnover was conducted in the presence of EDTA (10 mM). Release of [γ^32P] was quantified by thin layer chromatography. (C) CP^Fs are not transported by TmrAB. TmrAB (0.4 µM) reconstituted in liposomes was incubated with C4F peptide (3 µM) or CP^Fs (1 µM) in the presence of ATP/ADP (3 mM) and MgCl2 (5 mM) for 5 min at 45°C. Since CP^Fs were dissolved in maximal 0.5% (v/v) of DMSO, C4F plus 0.5% DMSO served as control. Proteoliposomes were washed on filter plates, and transported peptides were quantified at λex/em = 485/520 nm. (D) Inhibition of substrate translocation. TmrAB in liposomes (0.4 µM) were incubated with C4F peptide (3 µM), ATP/ADP (3 mM), and MgCl2 (5 mM) in the presence and absence of CP^Fs (1 µM) for 15 min at 45°C. Transported peptides were quantified as described in (C). In (B–C), mean values ± SD (n = 3) are shown. Figure 3—source data 1. Source data for Figure 3.
TmrAB in liposomes (0.4 µM) were incubated with ATP/ADP (3 mM), MgCl2 (5 mM), C4F peptide (3 µM), and CP^Fs (1 µM) for 15 min at 45°C. […] Proteoliposomes were solubilized by adding SDS (1% [v/v]) in transport buffer for 10 min at 20°C. Transported peptides were quantified at λex/em = 485/520 nm using a microplate reader (CLARIOstar, BMG LABTECH).

The record followed here is paper PMC8116058, “De novo macrocyclic peptides dissect energy coupling of a heterodimeric ABC transporter by multimode allosteric inhibition” (eLife, 2021).

As for `[O]=[V]([O-])([O-])[O-]` [Vanadate, orthovanadate, reference compound], in the assay on wild-type TmrAB, the “Occluded nucleotides, ADP” value was 56.67% and the “Occluded nucleotides, ATP” value was 62.96%.
In the case of “RRYC^ATTO655KSTEL [C4^ATTO655, reference compound]”, in the assay with TmrAB [1] (C4F 50 nM + TmrAB 4 µM + competitor (CP^B 6 µM or C4^ATTO655 10 µM)), the “Bound C4F peptide, fluorescence anisotropy” value amounted to 0.045. Moreover, the “Competition of C4F peptide binding” value with TmrAB [1] (CP^B 6 µM or C4^ATTO655 10 µM as competitor) is “interfered with C4F peptide binding”. Also, in the assay with TmrAB [2], the “Effect of transported peptides on CP^F binding to TmrAB” value is given as “did not affect binding of CP^Fs to TmrAB”.
With “RRYC^fluoresceinKSTEL [C4F, reference compound]”, the Transported peptide is 0.00 µmol·g/min in assay [3] (ADP 3 mM (background)) and 1.64 µmol·g/min in assay [3] (ATP 3 mM). In addition, the “Bound C4F peptide, fluorescence anisotropy” value with TmrAB [1] (listed as -: baseline of C4F 50 nM) came out at 0.023; with TmrAB [1] (listed as C4F: C4F 50 nM + TmrAB 4 µM, no competitor), 0.129.
For RRYQKSTEL [R9LQK, reference compound], the “Effect of transported peptides on CP^F binding to TmrAB” value with TmrAB [2] was “did not affect binding of CP^Fs to TmrAB”.
